Results reported in patent publication US20050233973A1, “Tri-peptides for antidepressant applications” (priority 1997, published 2005).
Like-named read-outs stand apart in the source and are kept apart here. Non-standard residues stand in square brackets, D forms with d. Residues, ends and D or L forms follow the SMILES beside them. pGlu = O=C1CC[C@@H](C(=O)O)N1

Legend:
TRH receptor-1 (TRHR-1) [1] = biological target: T1, TRH receptor-1 (TRHR-1) (Mus musculus, UniProt P21761); experiment: [3H]TRH competition binding, HEK293 cells expressing TRHR-1
T1 sequence (P21761 1-393): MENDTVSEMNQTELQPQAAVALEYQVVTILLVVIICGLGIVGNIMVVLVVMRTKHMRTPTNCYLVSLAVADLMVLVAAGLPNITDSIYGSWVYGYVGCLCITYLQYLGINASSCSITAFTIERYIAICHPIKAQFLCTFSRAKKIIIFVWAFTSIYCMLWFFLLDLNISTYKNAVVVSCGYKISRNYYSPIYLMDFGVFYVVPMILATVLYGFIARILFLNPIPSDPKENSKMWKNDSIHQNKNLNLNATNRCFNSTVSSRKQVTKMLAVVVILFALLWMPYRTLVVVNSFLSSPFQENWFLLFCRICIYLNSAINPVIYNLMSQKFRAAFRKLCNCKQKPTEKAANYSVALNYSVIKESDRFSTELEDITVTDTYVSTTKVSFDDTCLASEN

TRH receptor-2 (TRHR-2) [2] = biological target: T2, TRH receptor-2 (TRHR-2) (Rattus norvegicus, UniProt A6IZR3); experiment: [3H]TRH competition binding, HEK293 cells expressing TRHR-2
T2 sequence (A6IZR3 1-352): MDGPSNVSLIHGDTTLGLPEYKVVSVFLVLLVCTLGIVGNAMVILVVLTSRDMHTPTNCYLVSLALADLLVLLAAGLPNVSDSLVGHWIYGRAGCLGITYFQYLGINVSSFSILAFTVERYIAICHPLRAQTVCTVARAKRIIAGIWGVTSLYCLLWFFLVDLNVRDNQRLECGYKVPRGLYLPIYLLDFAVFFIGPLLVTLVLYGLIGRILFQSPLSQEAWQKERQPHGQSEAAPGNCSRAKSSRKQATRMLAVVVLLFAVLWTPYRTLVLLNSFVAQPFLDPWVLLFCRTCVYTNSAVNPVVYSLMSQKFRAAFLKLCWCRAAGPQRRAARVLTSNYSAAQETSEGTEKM

[3] = system: 465B12 antibody (raised to TRH)
[4] = system: CR-V3-B53 antibody (raised to TRH)
[5] = system: EEP (R^2=Glu) antibody (580B6)
[6] = system: Porsolt forced swim animal model of depression; experiment: Porsolt swim test; assay type: in vivo, rats
Procedure: Total immobility time versus swim time was recorded. Both high-dose (0.5 mg/kg sc) and low-dose injections (0.05 mg/kg ip) were used.

[7] = Serum T3 and T4 levels in Porsolt test animals; assay type: in vivo, rats; settings: for T3 level: 0.5 mg/kg (sc); for change in T3: animals of the Porsolt test; for effect upon T3 or T4 levels: at the dosage used
Procedure: A Porsolt swim test with rats was used to examine the antidepressant effects of peptides where R^2=Glu or R^2=Phe, as set forth in Lloyd, R. L. et al., Pharamcology, Biochemistry and Behavior, 70:15-22 (2001), incorporated herein by reference. […] No effect of the blocking variable or interaction of the blocking variable with treatment was found.
Using the animal models of Example 11, T3 (triiodothyronine) and T4 (thyroxine) levels were tested. Serum T3 was determined by […], using fluorescence polarization of a fixed concentration of a fluorescent analog of T3 as provided in the Abbott IMX System. T4 was also determined by radioimmunoassay. With EEP, no changes in T3 were observed. […] With ELP (where R^2 is Leu) and EFP there was an increase in T3, but this was not correlated to swim scores, with ELP not producing a behavioral effect, and EFP producing a marginal behavioral effect.

[8] = system: pentobarbital-anesthetized rats; assay type: in vivo, male Wistar rats; settings: for "wet dog" shaking while still anesthetized: rat, in vivo
Procedure: Twenty minutes after loss of the righting reflex, 10 μL of either sterile saline or peptide of this invention (1 or 10 μg/10 μL sterile saline) was administered by intracisternal (IC) injection. The time from IC injection to recovery of the righting reflex, as measured three times within 10 seconds, was recorded.

[9] = Brain tissue analysis of TRH and EEP after peptide injection; assay type: in vivo, rats; settings: 0.5 mg/kg (sc)
[10] = 50 micrograms given at bedtime; reduced from 12; cited from earlier work
control HEK293 cells = experiment: Intracellular calcium response (fura2), non-transfected control cells; assay type: cell-based; settings: Ca2+-free buffer
Procedure: The ability of peptides of the formula pGlu-[…] to stimulate an intracellular calcium response in transfected HEK293 of Example 5 was evaluated, to determine whether the peptides behave as agonists. […] The coverslip was then rinsed and placed in a Sykes-Moore chamber covered with 1 mL Ca^2+ and Mg^2+ free HBSS. Imaging was performed on a Nikon inverted microscope with a DAGE CCD72 camera and […] intensifier system. Cells were alternately excited at 340 and 380 nm and emission was measured at 490 nm; 340/380 ratios were obtained every 1.2 seconds and analyzed using Image-1 software from Universal Imaging Corporation. […] Peak responses from between 33 and 120 individual cells were averaged, and responses to TRH were measured with each set of cells as a standard. Most of the peptides caused a small increase in intracellular Ca^2+ when added to control HEK293 cells bathed in Ca^2+-containing medium, but with the exception of the R^2=Leu peptide, none of them evoked an appreciable Ca^2+ response in Ca^2+-free HBSS, which was used for all experiments.

TRH receptor-1 (TRHR-1) [11] = experiment: competition with 2 nM [^3H]TRH on HEK293 cells expressing TRHR-1
TRH receptor-2 (TRHR-2) [12] = experiment: competition with 2 nM [^3H]TRH on HEK293 cells expressing TRHR-2
[13] = high-dose (0.5 mg/kg sc), three injections
[14] = low-dose (0.05 mg/kg ip), three injections
[15] = tracer 125I-TRH, assay standard = 1.00

## N=C(N)NCCC[C@H](NC(=O)[C@@H]1CCC(=O)N1)C(=O)N1CCC[C@H]1C(N)=O [Arg, reference compound] ([pGlu]-Arg-Pro-NH2)
TRH receptor-1 (TRHR-1) [1]
  IC50: > 262 µM
TRH receptor-2 (TRHR-2) [2]
  IC50: > 262 µM

## NC(=O)CC[C@H](NC(=O)[C@@H]1CCC(=O)N1)C(=O)N1CCC[C@H]1C(N)=O [R^2 = Gln, reference compound] ([pGlu]-Gln-Pro-NH2)
[3]
  relative potency for displacement of assay tracer: 0.0225
[4]
  relative potency for displacement of assay tracer: 0.0055
[5]
  relative potency for displacement of assay tracer: 1.00
TRH receptor-1 (TRHR-1) [1]
  IC50: 27.7 µM
TRH receptor-2 (TRHR-2) [2]
  IC50: 21.4 µM

## NC(=O)[C@@H]1CCCN1C(=O)[C@H](CCC(=O)O)NC(=O)[C@@H]1CCC(=O)N1 [R^2 = Glu, pGlu-Glu-Pro-NH2] ([pGlu]-Glu-Pro-NH2)
[6]; 0.05 mg/kg (ip)
  mean immobility time: 121 s
[6]; 0.5 mg/kg (sc)
  mean immobility time: 58 s
[6]; [13]
  antidepressant effect compared to saline (total immobility time): effective
[6]; [14]
  antidepressant effect compared to saline (total immobility time): effective
[7]; R^2=Glu experiment, no significant difference to saline
  T3 level: 0.66 ng/mL
[7]; R^2=Phe experiment, significant increase vs controls (P<0.028, one-tailed)
  T3 level: 0.85 ng/mL
[7]
  change in T3: no changes
  effect upon T3 or T4 levels: No effect
[8]; IC injection of 10 μg
  reduction in pentobarbitol-induced sleep time (analeptic effect): had an analeptic effect
[8]
  "wet dog" shaking while still anesthetized: never produced shaking
[9]
  changes in TRH or EEP in brain regions (tissue analysis): failed to find any changes
[3]; [15]
  relative potency for displacement of assay tracer: 0.02
[4]; [15]
  relative potency for displacement of assay tracer: 0.0092
[5]; [15]
  relative potency for displacement of assay tracer: 1.00
TRH receptor-1 (TRHR-1) [1]
  IC50: > 282 µM
TRH receptor-2 (TRHR-2) [2]
  IC50: > 282 µM

## NC(=O)[C@@H]1CCCN1C(=O)[C@H](Cc1ccccc1)NC(=O)[C@@H]1CCC(=O)N1 [R^2 = Phe, pGlu-Phe-Pro-NH2] ([pGlu]-Phe-Pro-NH2)
[6]; 0.5 mg/kg (sc)
  mean immobility time: 125 s
[6]; [13]
  antidepressant effect compared to saline (total immobility time): effective
[7]
  change in T3: increase
[9]
  changes in TRH or EEP in brain regions (tissue analysis): failed to find any changes
TRH receptor-2 (TRHR-2) [2]
  IC50: 3.36 µM

## NC(=O)[C@@H]1CCCN1C(=O)[C@H](Cc1ccc(O)cc1)NC(=O)[C@@H]1CCC(=O)N1 [R^2 = Tyr, pGlu-Tyr-Pro-NH2] ([pGlu]-Tyr-Pro-NH2)
[6]; [14]
  antidepressant effect compared to saline (total immobility time): effective
[7]
  effect upon T3 or T4 levels: No effect
[3]; [15]
  relative potency for displacement of assay tracer: 9.85
[4]; [15]
  relative potency for displacement of assay tracer: 3.83
[5]; [15]
  relative potency for displacement of assay tracer: 5.06
TRH receptor-1 (TRHR-1) [1]
  IC50: > 257 µM
TRH receptor-2 (TRHR-2) [2]
  IC50: > 257 µM

## CC(C)[C@H](NC(=O)[C@@H]1CCC(=O)N1)C(=O)N1CCC[C@H]1C(N)=O [R^2 = Val, pGlu-Val-Pro-NH2] ([pGlu]-Val-Pro-NH2)
[6]; dose not stated
  antidepressant effect compared to saline (total immobility time): statistically meaningful behavioral effects were not observed
[7]
  effect upon T3 or T4 levels: No effect
[8]; IC injection of 10 μg
  reduction in pentobarbitol-induced sleep time (analeptic effect): had an analeptic effect
[3]; [15]
  relative potency for displacement of assay tracer: 0.161
[4]; [15]
  relative potency for displacement of assay tracer: 0.087
[5]; [15]
  relative potency for displacement of assay tracer: 9.24
TRH receptor-1 (TRHR-1) [1]
  IC50: > 308 µM
TRH receptor-2 (TRHR-2) [2]
  IC50: > 308 µM

## NC(=O)[C@@H]1CCCN1C(=O)[C@H](CO)NC(=O)[C@@H]1CCC(=O)N1 [Ser, reference compound] ([pGlu]-Ser-Pro-NH2)
TRH receptor-1 (TRHR-1) [1]
  IC50: 69.5 µM
TRH receptor-2 (TRHR-2) [2]
  IC50: 39.4 µM

## N[C@@H](Cc1cc(I)c(Oc2ccc(O)c(I)c2)c(I)c1)C(=O)O [T3, liothyronine]
[10]
  required numbers of ECTs: 7

## NC(=O)[C@@H]1CCCN1C(=O)[C@H](Cc1cnc[nH]1)NC(=O)[C@@H]1CCC(=O)N1 [TRH, pGlu-His-Pro-NH2, reference compound]
Control HEK293 cells
  Ca2+ response: no response
[8]; IC injection of 1 μg
  reduction in pentobarbitol-induced sleep time (analeptic effect): did not result in a significant reduction
[8]; IC injection of 10 μg
  reduction in pentobarbitol-induced sleep time (analeptic effect): had an analeptic effect
[8]
  "wet dog" shaking while still anesthetized: frequently accompanied by “wet dog” shaking
[3]; [15]
  relative potency for displacement of assay tracer: 1.00
[4]; [15]
  relative potency for displacement of assay tracer: 1.00
[5]; [15]
  relative potency for displacement of assay tracer: 2.91
TRH receptor-1 (TRHR-1) [1]
  IC50: 0.0235 µM
TRH receptor-2 (TRHR-2) [2]
  IC50: 0.0243 µM

## C[C@@H](O)[C@H](NC(=O)[C@@H]1CCC(=O)N1)C(=O)N1CCC[C@H]1C(N)=O [Thr, reference compound] ([pGlu]-Thr-Pro-NH2)
TRH receptor-1 (TRHR-1) [1]
  IC50: > 306 µM
TRH receptor-2 (TRHR-2) [2]
  IC50: > 306 µM

## [pGlu]-Arg-Pro-NH2
TRH receptor-1 (TRHR-1) [11]
  IC50: > 100 µg/mL
TRH receptor-2 (TRHR-2) [12]
  IC50: > 100 µg/mL

## [pGlu]-Gln-Pro-NH2
TRH receptor-1 (TRHR-1) [11]
  IC50: 9.8 µg/mL
TRH receptor-2 (TRHR-2) [12]
  IC50: 7.57 µg/mL

## [pGlu]-Glu-Pro-NH2
TRH receptor-1 (TRHR-1) [11]
  IC50: > 100 µg/mL
TRH receptor-2 (TRHR-2) [12]
  IC50: > 100 µg/mL

## [pGlu]-Leu-Pro-NH2
TRH receptor-1 (TRHR-1) [11]
  IC50: 1.85 µg/mL
TRH receptor-2 (TRHR-2) [12]
  IC50: 0.66 µg/mL

## [pGlu]-Phe-Pro-NH2
TRH receptor-1 (TRHR-1) [11]
  IC50: 1.58 µg/mL
TRH receptor-2 (TRHR-2) [12]
  IC50: 1.25 µg/mL

## [pGlu]-Ser-Pro-NH2
TRH receptor-1 (TRHR-1) [11]
  IC50: 21.7 µg/mL
TRH receptor-2 (TRHR-2) [12]
  IC50: 12.3 µg/mL

## [pGlu]-Thr-Pro-NH2
TRH receptor-1 (TRHR-1) [11]
  IC50: > 100 µg/mL
TRH receptor-2 (TRHR-2) [12]
  IC50: > 100 µg/mL

## [pGlu]-Tyr-Pro-NH2
TRH receptor-1 (TRHR-1) [11]
  IC50: > 100 µg/mL
TRH receptor-2 (TRHR-2) [12]
  IC50: > 100 µg/mL

## [pGlu]-Val-Pro-NH2
TRH receptor-1 (TRHR-1) [11]
  IC50: > 100 µg/mL
TRH receptor-2 (TRHR-2) [12]
  IC50: > 100 µg/mL

## pGlu-His-Pro-NH2, thyrotropin releasing hormone (TRH) (peptide)
TRH receptor-1 (TRHR-1) [11]
  IC50: 0.0085 µg/mL
TRH receptor-2 (TRHR-2) [12]
  IC50: 0.0088 µg/mL
